Test results from article PMC12567096, “An Efficacy- and In Vivo Exposure-Oriented Integrated Study to Investigate the Effective Components of Qishen Granule” (Pharmaceuticals, 2025).

Legend:
[1] = Concentrations of 24 analytes in QSG treated plasma (Table S5); conditions: for Exposure level in vivo (in words) / Concentration: QSG treated plasma; for Exposure level in vivo (in words): Table S5; for concentration at 0.5 h / concentration at 1 h / concentration at 0.08 h / concentration at 0.17 h / concentration at 2 h / concentration at 4 h / concentration at 8 h / concentration at 12 h: Sprague Dawley, rat, 7 g/kg; for Concentration: n = 5
OGD/R-induced H9c2 cells = assay: Protective effect on OGD/R-induced H9c2 cells (CCK-8 cell viability); format: cell-based, rat; conditions: 1, 10, 25, 50 and 100 μM prior to OGD/R, vs model group
Description: (§1) Rat myocardial H9c2 cells (purchased from China Infrastructure of Cell Line Resources, Institute of Basic Medical Sciences, Chinese Academy of Medical Sciences) were cultured in DMEM supplemented with 10% fetal bovine serum (FBS), Penicillin (100 U/mL), and Streptomycin (100 μg/mL) at 37 °C under a humidified atmosphere of 5% CO2 and 95% air. For OGD/R treatment, H9c2 cells were cultured in glucose-free DMEM under hypoxic conditions (95%N2 + 5%CO2) for 4 h at 37 °C followed by complete medium under normal conditions with air (95%) and CO2 (5%) for 2 h. A control group was maintained under normal culture conditions (with glucose-containing DMEM and 5% CO2) without undergoing OGD/R treatment. CCK8 was used to assess cell viability. After treatment, H9c2 cells were seeded in 96-well plates, with each well supplemented with 10 μL of CCK-8 solution and then incubated for 1 h. Finally, the absorbance at 450 nm was detected by a microplate reader (Model […] 200 PRO, TECAN, Grodig, Austria).
When evaluating the cytotoxicities of the absorbed compounds, the H9c2 cells were seeded in 96-well plates at a density of 1 × 10^4 cells/well; when cells reached 80% confluence, they were treated with 25 and 50 μM of the 24 analytes to screen the non-toxic concentration ranges. Afterward, the protective effects were verified by assessing the cell viability when treating with different concentrations (1, 10, 25, 50, and 100 μM) of the analytes prior to OGD/R treatment.

H9c2 cells = assay: Cytotoxicity on H9c2 cells (CCK-8); format: cell-based, rat; conditions: H9c2 cells, n=3; for inhibition at 25 µM / inhibition at 50 µM / inhibition at 100 µM: Rattus norvegicus, read-out: Inhibition rate
Description: as §1
When evaluating the cytotoxicities of the absorbed compounds, the H9c2 cells were seeded in 96-well plates at a density of 1 × 10^4 cells/well; when cells reached 80% confluence, […] Afterward, the protective effects were verified by assessing the cell viability when treating with different concentrations (1, 10, 25, 50, and 100 μM) of the analytes prior to OGD/R treatment.

## COC(=O)C1=CO[C@@H](O[C@@H]2O[C@H](CO)[C@@H](O)[C@H](O)[C@H]2O)[C@@H]2[C@@H](C)[C@H](O)C[C@H]12 [7-epi-loganin]
[1]
  Exposure level in vivo (in words): relatively lower exposure levels
[1]; plasma, oral
  concentration at 0.5 h: 1.73 ± 0.49 ng/mL
  concentration at 1 h: 1.5 ± 0.298 ng/mL
OGD/R-induced H9c2 cells
  H9c2 cell survival after OGD/R (in words): significantly improve H9c2 cell survival rates
H9c2 cells; 25 μM
  inhibition at 25 µM: 2.8 ± 0.9%
H9c2 cells; 50 μM
  inhibition at 50 µM: 7.1 ± 4.3%
H9c2 cells; 100 μM
  inhibition at 100 µM: 10.3 ± 3.5%

## COC[C@]12O[C@H]1[C@@H](O)[C@@H]1C=CO[C@@H](O[C@@H]3O[C@H](CO)[C@@H](O)[C@H](O)[C@H]3O)[C@@H]12 [10-methoxyl catalpol]
[1]; 0.5 h
  Concentration: 2.315 ± 0.283 ng/mL
[1]; 1 h
  Concentration: 1.293 ± 0.135 ng/mL
H9c2 cells; 25 μM
  Inhibition rate: 2.8 ± 0.9%
H9c2 cells; 50 μM
  Inhibition rate: 5.1 ± 4.3%
H9c2 cells; 100 μM
  Inhibition rate: 9.1 ± 4.2%

## COc1ccc(CCO[C@@H]2O[C@H](CO[C@@H]3OC[C@H](O)[C@H](O)[C@H]3O)[C@@H](OC(=O)/C=C/c3ccc(O)c(OC)c3)[C@H](O[C@@H]3O[C@@H](C)[C@H](O)[C@@H](O)[C@H]3O)[C@H]2O)cc1O [Angoroside C]
[1]; 0.5 h
  Concentration: 4.290 ± 1.023 ng/mL
[1]; 1 h
  Concentration: 3.109 ± 0.501 ng/mL
[1]; 2 h
  Concentration: 1.029 ± 0.203 ng/mL
[1]
  Exposure level in vivo (in words): relatively lower exposure levels
OGD/R-induced H9c2 cells
  H9c2 cell survival after OGD/R (in words): significantly improve H9c2 cell survival rates
H9c2 cells; 25 μM
  Inhibition rate: 3.6 ± 4.5%
H9c2 cells; 50 μM
  Inhibition rate: 12.7 ± 5.1%
H9c2 cells; 100 μM
  Inhibition rate: 18.7 ± 1.1%

## COc1ccc(-c2coc3cc(O[C@@H]4O[C@H](CO)[C@@H](O)[C@H](O)[C@H]4O)ccc3c2=O)cc1O [Calycosin-7-O-glucoside, Calycosin-7-O-D-glucoside]
[1]; 0.08 h
  Concentration: 1.161 ± 0.988 ng/mL
[1]; 0.17 h
  Concentration: 2.081 ± 1.576 ng/mL
[1]; 0.5 h
  Concentration: 8.612 ± 0.681 ng/mL
[1]; 1 h
  Concentration: 3.192 ± 1.624 ng/mL
[1]; 2 h
  Concentration: 3.096 ± 2.601 ng/mL
[1]; 4 h
  Concentration: 1.198 ± 1.103 ng/mL
[1]; 8 h
  Concentration: 1.241 ± 0.963 ng/mL
[1]; 12 h
  Concentration: 0.536 ± 0.271 ng/mL
H9c2 cells; 25 μM
  Inhibition rate: -1.2 ± 3.5%
H9c2 cells; 50 μM
  Inhibition rate: 7.8 ± 6.4%
H9c2 cells; 100 μM
  Inhibition rate: 11.8 ± 6.1%

## COc1ccc(-c2coc3cc(O)ccc3c2=O)cc1O [Calycosin]
[1]; plasma, oral
  concentration at 0.08 h: 0.966 ± 0.737 ng/mL
  concentration at 0.17 h: 2.15 ± 0.363 ng/mL
  concentration at 0.5 h: 2.51 ± 0.672 ng/mL
  concentration at 1 h: 1.7 ± 0.563 ng/mL
  concentration at 2 h: 0.825 ± 0.375 ng/mL
  concentration at 4 h: 0.589 ± 0.46 ng/mL
  concentration at 8 h: 0.737 ± 0.203 ng/mL
  concentration at 12 h: 0.647 ± 0.195 ng/mL
H9c2 cells; 25 μM
  inhibition at 25 µM: 6.8 ± 3.9%
H9c2 cells; 50 μM
  inhibition at 50 µM: 6.3 ± 8.3%
H9c2 cells; 100 μM
  inhibition at 100 µM: 9.3 ± 4.2%

## COc1ccc(-c2coc3cc(O[C@@H]4O[C@H](CO)[C@@H](O)[C@H](O)[C@H]4O)ccc3c2=O)cc1 [Formononetin-7-O-glucoside, Formononetin-7-O-D-glucoside]
H9c2 cells; 25 μM
  Inhibition rate: 0.8 ± 0.9%
H9c2 cells; 50 μM
  Inhibition rate: 9.1 ± 4.3%
H9c2 cells; 100 μM
  Inhibition rate: 11.1 ± 2.3%

## COC[C@@]12CC[C@H](OC)[C@]34C(C([C@H](OC)[C@H]13)[C@]1(OC(C)=O)[C@H]3[C@@H](OC(=O)c5ccccc5)[C@](O)(C[C@H]34)[C@@H](OC)[C@@H]1O)N(C)C2 [Hypaconitine]
[1]; in vivo
  concentration at 0.08 h: 0.048 ± 0.019 ng/mL
  concentration at 0.17 h: 0.202 ± 0.096 ng/mL
  concentration at 0.5 h: 0.308 ± 0.041 ng/mL
  concentration at 1 h: 0.34 ± 0.066 ng/mL
  concentration at 2 h: 0.331 ± 0.081 ng/mL
  concentration at 4 h: 0.212 ± 0.084 ng/mL
  concentration at 8 h: 0.071 ± 0.049 ng/mL
  concentration at 12 h: 0.005 ± 0.013 ng/mL
H9c2 cells; 25 μM
  inhibition at 25 µM: 13.7 ± 4.1%
H9c2 cells; 50 μM
  inhibition at 50 µM: 20.8 ± 3.2%
H9c2 cells; 100 μM
  inhibition at 100 µM: 32.8 ± 1.2%

## O=C(/C=C/c1ccc(O[C@@H]2O[C@H](CO)[C@@H](O)[C@H](O)[C@H]2O)cc1)c1ccc(O)cc1O [Isoliquiritin]
[1]; in vivo
  concentration at 0.08 h: 0.332 ± 0.496 ng/mL
  concentration at 0.17 h: 1.24 ± 0.874 ng/mL
  concentration at 0.5 h: 2.54 ± 0.684 ng/mL
  concentration at 1 h: 1.31 ± 0.788 ng/mL
  concentration at 2 h: 0.456 ± 0.573 ng/mL
  concentration at 4 h: 0.075 ± 0.309 ng/mL
  concentration at 8 h: 0.078 ± 0.159 ng/mL
  concentration at 12 h: 0.158 ± 0.323 ng/mL
H9c2 cells; 25 μM
  inhibition at 25 µM: -18.3 ± 3.6%
H9c2 cells; 50 μM
  inhibition at 50 µM: 8.5 ± 2.9%
H9c2 cells; 100 μM
  inhibition at 100 µM: 13.5 ± 2.3%

## O=C1C[C@@H](c2ccc(O)cc2)Oc2cc(O)ccc21 [Liquiritigenin]
[1]; 0.08 h
  Concentration: 1.163 ± 0.835 ng/mL
[1]; 0.17 h
  Concentration: 3.082 ± 0.977 ng/mL
[1]; 0.5 h
  Concentration: 4.378 ± 0.959 ng/mL
[1]; 1 h
  Concentration: 3.255 ± 1.246 ng/mL
[1]; 2 h
  Concentration: 2.336 ± 1.150 ng/mL
[1]; 4 h
  Concentration: 2.064 ± 0.888 ng/mL
[1]; 8 h
  Concentration: 2.239 ± 1.209 ng/mL
[1]; 12 h
  Concentration: 2.987 ± 1.135 ng/mL
H9c2 cells; 25 μM
  Inhibition rate: -4.4 ± 2.2%
H9c2 cells; 50 μM
  Inhibition rate: 2.3 ± 3.3%
H9c2 cells; 100 μM
  Inhibition rate: 8.5 ± 3.6%

## O=C1C[C@@H](c2ccc(O[C@@H]3O[C@H](CO)[C@@H](O)[C@H](O)[C@H]3O)cc2)Oc2cc(O)ccc21 [Liquiritin]
[1]; plasma, oral
  concentration at 0.08 h: 2.07 ± 1.32 ng/mL
  concentration at 0.17 h: 11.8 ± 10.9 ng/mL
  concentration at 0.5 h: 26.8 ± 4.42 ng/mL
  concentration at 1 h: 17.8 ± 5.29 ng/mL
  concentration at 2 h: 8.3 ± 2.48 ng/mL
  concentration at 4 h: 4.02 ± 3.3 ng/mL
  concentration at 8 h: 2.17 ± 0.609 ng/mL
  concentration at 12 h: 1.36 ± 2.74 ng/mL
H9c2 cells; 25 μM
  inhibition at 25 µM: -7.4 ± 7.5%
H9c2 cells; 50 μM
  inhibition at 50 µM: 11.6 ± 0.6%
H9c2 cells; 100 μM
  inhibition at 100 µM: 17.6 ± 1.2%

## COC(=O)C1=CO[C@@H](O[C@@H]2O[C@H](CO)[C@@H](O)[C@H](O)[C@H]2O)[C@@H]2[C@H](C)O[C@@H](O)C[C@H]12 [Morroniside]
[1]
  Exposure level in vivo (in words): relatively lower exposure levels
[1]; plasma, oral
  concentration at 0.5 h: 3.05 ± 0.802 ng/mL
  concentration at 1 h: 2.4 ± 0.829 ng/mL
OGD/R-induced H9c2 cells
  H9c2 cell survival after OGD/R (in words): significantly improve H9c2 cell survival rates
H9c2 cells; 25 μM
  inhibition at 25 µM: -10.6 ± 7.6%
H9c2 cells; 50 μM
  inhibition at 50 µM: 2.1 ± 5.6%
H9c2 cells; 100 μM
  inhibition at 100 µM: 8.1 ± 3.9%

## C=C[C@H]1[C@H](O[C@@H]2O[C@H](CO)[C@@H](O)[C@H](O)[C@H]2O)OC=C(C(=O)O)[C@H]1CC(=O)O [Secologanoside]
[1]; 0.5 h
  Concentration: 4.124 ± 1.235 ng/mL
[1]; 1 h
  Concentration: 2.135 ± 1.024 ng/mL
[1]; 2 h
  Concentration: 1.274 ± 0.246 ng/mL
H9c2 cells; 25 μM
  Inhibition rate: -15.6 ± 7.9%
H9c2 cells; 50 μM
  Inhibition rate: 11.0 ± 7.7%
H9c2 cells; 100 μM
  Inhibition rate: 19.1 ± 3.7%

## C=C[C@H]1[C@H](O[C@@H]2O[C@H](CO)[C@@H](O)[C@H](O)[C@H]2O)OC=C(C(=O)OC)[C@H]1CC(=O)O [Secoxyloganin]
H9c2 cells; 25 μM
  Inhibition rate: 3.5 ± 1.2%
H9c2 cells; 50 μM
  Inhibition rate: 7.9 ± 3.3%
H9c2 cells; 100 μM
  Inhibition rate: 9.9 ± 2.7%

## Liquiritin apioside
OGD/R-induced H9c2 cells
  H9c2 cell survival after OGD/R (in words): significantly improve H9c2 cell survival rates
H9c2 cells; 25 μM
  Inhibition rate: -25.2 ± 3.5%
H9c2 cells; 50 μM
  Inhibition rate: -16.2 ± 3.6%
H9c2 cells; 100 μM
  Inhibition rate: -6.1 ± 2.5%
